Broadly, the solubility is the dissolved amount per volume that the medium holds. Low readings indicate little dissolved substance, high ones much dissolved substance. In general, MIC refers to the lowest concentration found to suppress growth.

A short description of data set [1]: Water solubility (table of physicochemical properties).
Data set [2] has as its system bacterial isoleucyl-tRNA synthetases. The settings on record: cited from earlier work.
Data set [3] in a line: Nail penetration, 14-day dosing of radiolabeled compound (Hui protocol). Type of data set: in vitro ADME. To be noted: washing, nail samples and supporting bed cotton ball samples; 14-day treatment. The procedure: Two nail penetration studies were performed based on the protocol in Hui et al., Journal of Pharmaceutical Sciences, 91(1): 189-195 (2002) (“Hui protocol”). The purpose of this study was to determine and compare the penetration and distribution of C10 in vehicle into the human nail plate in vitro relative to 8% ciclopirox w/w in commercial lacquer (Penlac®).
The study was composed of two groups. The compositions (weight %) of the dosage formulations are as follows: […]
Healthy human finger nail plates were collected from adult human cadavers and stored in a closed container at 0-4° C. Before the experiment, the nail plates were gently washed with normal saline to remove any contamination, then re-hydrated by placing them for three hours on a cloth wetted with normal saline. The nail samples were randomly selected into four groups.
Radioactivity of each group is approximately 0.19±0.01 and 0.22±0.03 μCi/10 μL solutions respectively, for ^14C—C10 (group A), and ^14C-ciclopirox (group C).
Surface washing was started in morning 10 min prior to next dosing, the surface of the nail was washed with cotton tips in a cycle, as follows:
A Teflon one-chamber diffusion cell (PermeGear, Inc., Hellertown, Pa.) was used to hold each nail. To approximate physiological conditions, a small cotton ball wetted with 0.1 mL normal saline was placed in the chamber to serve as a nail bed and provide moisture for the nail plate. Every 3 days, 0.1 mL normal saline was injected through the inlet into the chamber to keep the cotton ball wet. The nail plate was placed on a ledge inside the receptor (1.0 cm in diameter and 0.5 cm high). The ventral (inner) surface of the nail was placed face down and rested on the wet cotton ball. The cells were placed on a platform in a large glass holding tank filled with saturated sodium phosphate solution to keep the cells at a constant humidity of 40%.
After completion of the incubation phase, the nail plate was transferred from the diffusion cell to a clean copper nail holder for sampling process. The nail plate was inverted so that the ventral (nail bed) surface now faced up and the dorsal (outer) dosed surfaced faced down. The copper nail holder has an opening as it sits on top of the stage. When the sampling process initiated, the coarse adjustment was adjusted to move the position of the stage until the nail plate was just touching the tip of the cutter. Then the drill was turned on and the fine adjustment was turned to push the stage closer to the drill, removing a nail core sample. After the above process, approximate 0.40-0.50 mm in depth and 7.9 mm in diameter nail pulverized samples were harvested from the center of the ventral (nail bed) surface of the nail.
The powdered nail samples were collected into a glass scintillation vial and weighted. Aliquots of 5.0 mL Packard soluene-350 (Packard Instrument Company, Meriden, Conn.) was added to the scintillation vial to dissolve the powder. The upper part, the intermediate and dorsal layers of the center of the nail, including the area of application of the dose was cut in the same diameter as the sampled area and was then placed into a glass scintillation vial with 5.0 mL packard soluene-350. The rest of the nail was also placed in a glass scintillation vial with 5.0 mL packard soluene-350.
All radioactivity measurements were conducted with a Model 1500 Liquid Scintillation Counter (Packard Instrument Company, Downer Grove, Ill.). The counter was audited for accuracy using sealed samples of quenched and unquenched standards as detailed by the instrument manual. The ^14C counting efficiency is equal to or greater than 95%. All nail samples pre-treated with packard soluene-350 were incubated at 40° C. for 48 hours followed by the addition of 10 mL scintillation cocktail (HIONIC-FLUOR, Packard Instrument Company, Meriden, Conn.). […]

The format of data set [4] is in vitro ADME, human. On the procedure: C10, 5-fluoro-1,3-dihydro-1-phenyl-2,1-benzoxaborole, C1, and 5-fluoro-1,3-dihydro-1-(3-hydroxymethylphenyl)-2,1-benzoxaborole, formulated at 10% w/v in ethanol, were tested. A single aliquot (10 μl) of each formulation was dosed to the top of human nail plates using the nail penetration procedure described below, and allowed to stand for 3-days. The dosed area was washed, and then the cotton ball bed supporting the nail and the nail samples were collected at the end of the incubation period, stored at 4° C. and analyzed for drug using LC/MS/MS.
Details of the nail incubation have been previously described^9, 10. […] The supporting cotton ball under the nail was wetted by normal saline providing moisture for the nail plate, and the degree of hydration was monitored and controlled during the experiment. […]
LC/MS/MS (API3000, Applied Biosystems, Foster City, Calif.) was used to quantitate the amounts of non-radiolabeled oxaboroles, C10, 5-fluoro-1,3-dihydro-1-phenyl-2,1-benzoxaborole, C1, and 5-fluoro-1,3-dihydro-1-(3-hydroxymethylphenyl)-2,1-benzoxaborole in samples from the nail penetration studies. […] After centrifugation, the filtrate from the cotton ball samples was transferred to autosampler vials and analyzed by LC/MS/MS. […]

Data set [5] concerns Saccharomyces cerevisiae strain ATCC 201388. Put plainly: MIC (NCCLS M27, YPD or synthetic defined media), haploid parental strain. To be noted: Saccharomyces cerevisiae, ATCC201388, Table 2; ATCC201388; read-out: MIC. Format: cell-based. On the procedure: (§1) The haploid Saccharomyces cerevisiae strain ATCC 201388 was used in the selection of C10 resistant mutants. Spontaneous and EMS-induced resistant mutants were isolated from YPD agar plates containing 4×, 8×, 16×MIC of C10. All minimal inhibitory concentrations (MIC) were determined using NCCLS protocol M27 with the exception of using YPD or synthetic defined media. All yeast and molecular genetic manipulations were essentially performed as described by Guthrie C., et al., Methods in Enzymology, 350: Part B, (2002).
(§2) The minimal inhibitory concentration (MIC) was essentially performed following the NCCLS guidelines outlined in the M27 protocol with the exception of using YPD or synthetic defined media (SDM).

Data set [6] has as its system S. cerevisiae C10 resistant mutants (CDC60 editing domain mutations). Description: MIC (NCCLS M27), spontaneous and EMS induced C10 resistant mutants. Type of data set: cell-based, Saccharomyces cerevisiae. To be noted: for MIC: Saccharomyces cerevisiae, Table 2. The procedure:
as §1
Resistant mutants appeared after 2 d incubation at 30° C. Frequency of resistance was determined by dividing the number of resistant mutants by the total number of cells plated as determined by plating dilutions of the overnight culture on YPD plates.
A 2.5 mL of the overnight culture, which was grown in YPD media, was centrifuged at 700×g for 5 minutes. The cell pellet was resuspended in 10 mL 50 mM potassium phosphate buffer, pH 7.0. The cell suspension was centrifuged again and the cell pellet was resuspended in phosphate buffer to obtain a cell density of 5×10^7 cells/mL as determined by counting the cells using a Petroff Hausser Counting Chamber (Horsham, Pa. USA). The cell suspension was shaken with 300 μL of EMS (Alfa Aesar, Ward Hill, Mass., USA) for 30 min. at 30° C. The mutagenesis was stopped by adding 10% (w/v) sodium thiosulfate (Sigma-Aldrich, St. Louis, Mo., USA), and the cells were pelleted by centrifugation at 700×g for 5 min. and resuspended in 1 mL sterile H2O. This was repeated once more before the cells were plated on YPD agar plates containing 1.6 μg/mL of C10.
as §2

≈ marks a conversion by molar mass, not a printed value. Some results are limits rather than exact numbers.

Regarding `OB1OCc2cc(Cl)ccc21` [C1, 5-chlorobenzo[c][1,2]oxaborol-1(3H)-ol], in data set [1], the solubility is > 100 µg/mL.

For the compound `C/C(=C\C(=O)OCCCCCCCCC(=O)O)C[C@@H]1OC[C@H](C[C@@H]2O[C@H]2[C@@H](C)[C@H](C)O)[C@@H](O)[C@H]1O` [Mupirocin, mupirocin], the “activity against the human homolog versus bacterial isoleucyl-tRNA synthetases (times less active)” value in data set [2] is reported as “more than 1,000 times”.

For the compound `Cc1cc(C2CCCCC2)n(O)c(=O)c1` [ciclopirox], the “Cumulative radioactivity recoveries of carbon-14” value in data set [3] is listed as 89±1.56% of applied dose. Further, the “penetration of the nail plate, in words” value in data set [4] is reported as “penetrates the nail plate poorly”. The MIC in data set [5], in data set [6] (C10 resistant mutant (C)), in data set [6] (C10 resistant mutant (G)) and in data set [6] (C10 resistant mutant (H)) was 0.5 µg/mL (≈ 2.41 µM) throughout. For the same compound, in data set [6], the “resistance of C10 resistant mutants to other antifungals, in words” value is recorded as “not resistant”.
